Reference: paper PMC3266934, “The Murine Coronavirus Hemagglutinin-esterase Receptor-binding Site: A Major Shift in Ligand Specificity through Modest Changes in Architecture” (PLoS Pathogens, 2012)

Biological target: T1, MHV-S HE ectodomain (HE / HE^0) (Murine hepatitis virus strain S, UniProt P31614)
T1 construct: HEK293T or HEK293 GnTI(-); codon-optimized synthetic gene; homodimer
Assay: GC-MS of enzymatic de-O-acetylation
Assay type: biochemical
Conditions: sialate-4-O-acetylesterase site; thrombin-released ectodomain

T1 sequence (P31614 25-403): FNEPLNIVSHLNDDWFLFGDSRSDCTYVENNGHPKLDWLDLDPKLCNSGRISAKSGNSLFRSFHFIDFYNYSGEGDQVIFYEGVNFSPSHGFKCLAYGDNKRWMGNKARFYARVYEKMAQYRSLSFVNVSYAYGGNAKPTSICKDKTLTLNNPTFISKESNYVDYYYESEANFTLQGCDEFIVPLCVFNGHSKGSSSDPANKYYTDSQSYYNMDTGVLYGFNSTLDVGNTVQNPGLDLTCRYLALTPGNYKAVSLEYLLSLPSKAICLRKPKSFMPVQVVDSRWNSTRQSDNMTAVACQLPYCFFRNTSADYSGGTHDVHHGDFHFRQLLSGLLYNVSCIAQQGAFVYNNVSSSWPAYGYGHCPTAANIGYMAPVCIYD

## CO[C@]1(C(=O)O)C[C@H](OC(C)=O)[C@@H](NC(C)=O)[C@H]([C@H](O)[C@H](O)COC(C)=O)O1 [αNeu4,5,9Ac32Me, 5-N-acetyl-4,9-di-O-acetylneuraminic acid α-methylglycoside]
  GC-MS of enzymatic de-O-acetylation: retained proper sialate-4-O-acetylesterase activity when assayed for substrate specificity with a synthetic di-O-acetylated Sia
